According to patent EP0623343A1, “Ketamine analogues for the treatment of thrombocytopenia” (GENENTECH, INC., priority 1993, dated 1994):
Like-named read-outs stand apart in the source and are kept apart here.

How the values were obtained:
DAMI cells = assay: DAMI assay measuring endomitotic activity (polyploidization) of DAMI cells; details: for DAMI: Thrombopoietic activity, concentration at which active
CMK cells = assay: CMK assay for thrombopoietin (TPO) induction of platelet antigen GPIIbIIIa expression; details: for CMK: Thrombopoietic activity, concentration at which active; for minimal effective concentration: Homo sapiens, CMK
[1] = Thrombopoeitic activity in various assays (not specified further); details: for thrombopoeitic activity in various assays: no activity at concentrations as high as 200 µM
C57BL6 mice = assay: Thrombopoietin (TPO) in vivo assay (Mouse Platelet Rebound Assay); details: @ 2 mg/mouse/d; IP injections on days 5 and 6 after anti-platelet serum
Method: Thrombopoietin (TPO) in vivo assay (Mouse Platelet Rebound Assay)
In vivo Assay for ³⁵S Determination of Platelet Production
C57BL6 mice (obtained from Charles River) were injected intraperitoneally (IP) with 1 ml goat anti-mouse platelet serum (6 amps) on day 1 to produce thrombocytopenia. On days 5 and 6, mice were given two IP injections of the factor or PBS as the control. On day 7, thirty µCi of Na₂³⁵SO₄ in 0.1 ml saline were injected intravenously and the percent ³⁵S incorporation of the injected dose into circulating platelets was measured in blood samples obtained from treated and control mice. Platelet counts and leukocyte counts were made at the same time from blood obtained from the retro-orbital sinus.

[2] = after 1-2 weeks treatment; patient had 37,000-58,000/µl before; cited from earlier work
[3] = read-out: DAMI(µM), Thrombopoietic activity, concentration at which active, 'inactive @200' given as >200
[4] = read-out: CMK(µM), Thrombopoietic activity, concentration at which active, 'inactive @200' given as >200
[5] = read-out: active at concentration in the CMK assay
[6] = read-out: active / inactive at concentration in the DAMI assay
[7] = read-out: active at concentration in the DAMI assay

SMILES	minimal effective concentration (DAMI cells; [3])	minimal effective concentration (CMK cells; [4])	minimal effective concentration (CMK cells; [5])	further results
NC1(c2ccccc2Cl)CCC=CC1=O (single isomer, unassigned; (+)) [(+)-V, (+)-6-amino-6-(2-chlorophenyl)-2-cyclohexen-1-one]	–	–	–	DAMI (DAMI cells; 'inactive @200' given as >200): 12 µM; active at concentration in the CMK assay (CMK cells): 6 µm; CMK (CMK cells; 'inactive @200' given as >200): 6 µM
CC(=O)NC1(c2ccccc2Cl)CCC=CC1=O (stereo not shown) [VI, 6-acetylamino-6-(2-chlorophenyl)-2-cyclohexen-1-one]	12 µM	6 µM	–	thrombopoeitic activity compared with 5,6-dehydronorketamine ([1]; N-acylated derivative): even more active
CSCCC(=O)NC1(c2ccccc2Cl)CCC=CC1=O (stereo not shown) [EXAMPLE V, 6-(2-chlorophenyl)-6-(3-(methylthio)propanoyl)amino-2-cyclohexen-1-one]	–	–	6 µM	–
O=C1C=CCCC1 [cyclohexenone, reference compound]	200 µM	200 µM	–	–
O=C1C=CC(=O)c2ccccc21 [1,4-naphthoquinone, reference compound]	> 200 µM	< 6 µM	–	–
NC1(c2ccccc2Cl)CCC=CC1=O (stereo not shown) [V, 6-amino-6-(2-chlorophenyl)-2-cyclohexen-1-one]	–	6 µM	15 µM	In vivo(% ctl.@ mg/mouse/d) (C57BL6 mice): 131 @ 2 % ctl.; DAMI (DAMI cells; 'inactive @200' given as >200): 25 µM; minimal effective concentration (DAMI cells; [6]): 30 µM
NC1(c2ccccc2Cl)CCCCC1=O (stereo not shown) [IV, 2-(amino)-2-(2-chlorophenyl) cyclohexanone, reference compound]	> 200 µM	> 200 µM	–	thrombopoeitic activity in various assays [1]: > 200 µM
NCC(=O)NC1(c2ccccc2Cl)CCC=CC1=O (stereo not shown) [EXAMPLE IV, 6-(2-aminoacetyl)amino-6-(2-chlorophenyl)-2-cyclohexen-1-one]	–	–	6 µM	minimal effective concentration (DAMI cells; [7]): 6 µM
NC1(c2ccccc2Cl)CCC=CC1=O (single isomer, unassigned; (-)) [(-)-V, (-)-6-amino-6-(2-chlorophenyl)-2-cyclohexen-1-one]	–	–	6 µM	DAMI (DAMI cells; 'inactive @200' given as >200): 12 µM; minimal effective concentration (DAMI cells; [7]): 6 µM; CMK (CMK cells; 'inactive @200' given as >200): 6 µM
CNC1(c2ccccc2Cl)CCCCC1=O (stereo not shown) [ketamine (III), 2-(2-chlorophenyl)-2-(methylamino) cyclohexanone, reference compound]	> 200 µM	> 200 µM	–	thrombopoeitic activity in various assays [1]: > 200 µM
Cc1nnc2n1-c1sc(CCC(=O)N3CCOCC3)cc1C(c1ccccc1Cl)=NC2 [WEB 2086, 4-(2-chlorphenyl)-9-methyl-2-[3-(4-morpholinyl)-3-propanon-1-yl]6H-thieno[3,2,f][1,2,4]triazolo[4,3,a,][1,4] diazepin, reference compound]	> 200 µM	> 200 µM	–	platelet counts [2]: 140,000-190,000 /µl; minimal effective concentration (DAMI cells; [6]): > 200 µM
O=C(CCCC[C@@H]1SC[C@@H]2NC(=O)N[C@@H]21)NC1(c2ccccc2Cl)CCC=CC1=O (stereo partly shown) [VII, 6-biotinoylamino-6-(2-chlorophenyl)-2-cyclohexen-1-one]	25 µM	12 µM	–	–
